Assay results as given in US20240116985A1, “STAPLED PEPTIDES AND METHODS THEREOF” (priority 2020, published 2024).
Read-outs that look alike come from different tables or passages of the source.

Biological target: T1, full-length beta-Catenin (Uniprot ID P35222) (Homo sapiens, UniProt P35222)
T1 construct: 10 nM full-length beta-Catenin (Uniprot ID P35222)
T1 sequence (P35222 1-781): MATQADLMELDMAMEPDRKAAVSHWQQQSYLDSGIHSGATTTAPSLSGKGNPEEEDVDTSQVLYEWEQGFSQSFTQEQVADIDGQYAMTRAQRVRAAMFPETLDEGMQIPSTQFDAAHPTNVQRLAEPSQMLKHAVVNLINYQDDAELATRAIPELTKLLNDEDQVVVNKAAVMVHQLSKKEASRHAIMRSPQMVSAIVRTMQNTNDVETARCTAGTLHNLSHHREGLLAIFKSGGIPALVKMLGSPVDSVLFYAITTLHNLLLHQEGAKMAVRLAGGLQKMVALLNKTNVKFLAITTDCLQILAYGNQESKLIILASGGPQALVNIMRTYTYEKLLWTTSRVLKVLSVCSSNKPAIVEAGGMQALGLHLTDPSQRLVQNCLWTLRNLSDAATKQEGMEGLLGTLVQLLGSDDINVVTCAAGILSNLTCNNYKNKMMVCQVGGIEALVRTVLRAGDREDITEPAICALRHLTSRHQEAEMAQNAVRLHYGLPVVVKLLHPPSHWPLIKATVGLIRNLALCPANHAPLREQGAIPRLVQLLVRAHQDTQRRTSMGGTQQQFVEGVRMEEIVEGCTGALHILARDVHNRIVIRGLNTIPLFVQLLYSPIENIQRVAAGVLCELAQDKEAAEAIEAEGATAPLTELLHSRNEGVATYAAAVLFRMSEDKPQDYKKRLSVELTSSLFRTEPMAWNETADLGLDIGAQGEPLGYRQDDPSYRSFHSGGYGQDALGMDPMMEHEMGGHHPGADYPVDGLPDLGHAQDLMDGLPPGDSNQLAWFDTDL
Assay: Fluorescence polarization IC50 (beta-catenin / 5FAM-TCF4 10-53 competition)
Assay type: binding
Details: fluorescence polarization

| Structure (SMILES) | IC50 (read-out: beta-Catenin FP IC50) [nM] | IC50 (beta-catenin, read-out: FP EC50) [nM] |
| --- | --- | --- |
| CC(=O)N1CCC[C@]12CC=CCCCC1(CCCC=CCCCOC(=O)N3CC[C@](C(=O)N[C@@H](Cc4ccsc4)C(=O)N[C@@H](Cc4csc5ccccc45)C(=O)N[C@@H](CCC(N)=O)C(N)=O)(C3)NC(=O)[C@H](CC(C)C)NC(=O)[C@H](Cc3ccccc3)NC(=O)[C@H](C)NC(=O)[C@H](C)NC(=O)[C@H](CC(=O)O)NC(=O)[C@H](CC(=O)O)NC1=O)NC(=O)[C@H](CC(C)(C)C)NC(=O)[C@H](CC(=O)O)NC2=O (stereo partly drawn) [I-2019, Ac-PL3-Asp-Npg-B5-Asp-Asp-Ala-Ala-Phe-Leu-PyrR2-3Thi-BztA-Gln-NH2] | 1450 | – |
| CC(=O)N1CCC[C@]12CC=CCCCC1(CCCC=CCCOC(=O)N3CC[C@@](C(=O)N[C@@H](Cc4ccsc4)C(=O)N[C@@H](Cc4csc5ccccc45)C(=O)N[C@@H](CCC(N)=O)C(N)=O)(C3)NC(=O)[C@H](CC(N)=O)NC(=O)[C@H](Cc3ccccc3)NC(=O)[C@H](C)NC(=O)[C@H](C)NC(=O)[C@H]([C@@H](C)O)NC(=O)[C@H](CC(N)=O)NC1=O)NC(=O)[C@H](CC(C)(C)C)NC(=O)[C@H](CC(=O)O)NC2=O (stereo partly drawn) [I-2198, Ac-PL3-Asp-Npg-B5-Asn-Thr-Ala-Ala-Phe-Asn-PyrS1-3Thi-BztA-Gln-NH2] | 1470 | – |
| CC(=O)N[C@]1(C)CCCCCCC2(CCCCCCCCOC(=O)N3CC[C@@](C(=O)N[C@@H](Cc4ccccc4C(F)(F)F)C(=O)N[C@@H](Cc4csc5ccccc45)C(=O)N[C@@H](CCC(N)=O)C(N)=O)(C3)NC(=O)[C@H](CC(C)C)NC(=O)[C@H](Cc3ccccc3)NC(=O)[C@H](C)NC(=O)[C@H](C)NC(=O)[C@H](Cc3cccc(C(=O)O)c3)NC(=O)[C@H](CC(=O)O)NC2=O)NC(=O)[C@H](CC(C)(C)C)NC(=O)[C@H](CC(=O)O)NC1=O (stereo partly drawn) [I-2570, Ac-R3-Asp-Npg-B5-Asp-3COOHF-Ala-Ala-Phe-Leu-PyrS2-2F3MeF-BztA-Gln-NH2] | 1280 | – |
| CC(=O)N1CCC[C@]12CC=CCCCC1(CCCC=CCCCOC(=O)N3CC[C@@](C(=O)N[C@@H](Cc4ccsc4)C(=O)N[C@@H](Cc4csc5ccccc45)C(=O)N[C@@H](CCC(N)=O)C(N)=O)(C3)NC(=O)[C@H](CC(N)=O)NC(=O)[C@H](Cc3ccccc3)NC(=O)[C@H](C)NC(=O)[C@H](C)NC(=O)[C@H](CC(=O)O)NC(=O)[C@H](CC(=O)O)NC1=O)NC(=O)[C@H](CC(C)(C)C)NC(=O)[C@H](CC(C)C)NC2=O (stereo partly drawn) [I-1226, Ac-PL3-Leu-Npg-B5-Asp-Asp-Ala-Ala-Phe-Asn-PyrS2-3Thi-BztA-Gln-NH2] | 559 | – |
| CC(=O)N[C@]12CCN(C1)C(=O)OCC=CCCCC1(CCCC=CCCCOC(=O)N3CC[C@@](C(=O)N[C@@H](Cc4ccccc4C(F)(F)F)C(=O)N[C@@H](Cc4csc5ccccc45)C(=O)N[C@@H](CCC(N)=O)C(N)=O)(C3)NC(=O)[C@H](CC(C)C)NC(=O)[C@H](Cc3ccccc3)NC(=O)[C@H](C)NC(=O)[C@H](C)NC(=O)[C@H](Cc3cccc(C(=O)O)c3)NC(=O)[C@H](CC(=O)O)NC1=O)NC(=O)[C@H](CC(C)(C)C)NC(=O)[C@H](CC(=O)O)NC(=O)[C@H](C)NC2=O (stereo partly drawn) [I-2568, Ac-PyrR-Ala-Asp-Npg-B5-Asp-3COOHF-Ala-Ala-Phe-Leu-PyrS2-2F3MeF-BztA-Gln-NH2] | 4770 | – |

The next molecules have a lower IC50 (read-out: beta-Catenin FP IC50) than those just listed; values first:

| IC50 (read-out: beta-Catenin FP IC50) [nM] | IC50 (beta-catenin, read-out: FP EC50) [nM] | Structure (SMILES) |
| --- | --- | --- |
| 28 | – | CC(=O)N1CCC[C@]12CC=CCCCC1(CCCC=CCCCOC(=O)N3CC[C@@](C(=O)N[C@@H](Cc4ccccc4Cl)C(=O)N[C@@H](Cc4csc5ccccc45)C(=O)N[C@@H](CCC(N)=O)C(N)=O)(C3)NC(=O)[C@H](CC(N)=O)NC(=O)[C@H](Cc3ccccc3N)NC(=O)[C@H](C)NC(=O)[C@H](C)NC(=O)[C@H](CC(=O)O)NC(=O)[C@H](CC(=O)O)NC1=O)NC(=O)[C@H](CC(C)(C)C)NC(=O)[C@H](CC(=O)O)NC2=O (stereo partly drawn) [I-1727, Ac-PL3-Asp-Npg-B5-Asp-Asp-Ala-Ala-2NH2F-Asn-PyrS2-2C1F-BztA-Gln-NH2] |
| 81 | – | CC(=O)N1CCC[C@]12CC=CCCCC1(CCCC=CCCCOC(=O)N3CC[C@@](C(=O)N[C@@H](Cc4ccsc4)C(=O)N[C@@H](Cc4csc5ccccc45)C(=O)N[C@@H](CCC(N)=O)C(N)=O)(C3)NC(=O)[C@H](CC(C)C)NC(=O)[C@H](Cc3ccccc3)NC(=O)[C@H](C)NC(=O)[C@H](C)NC(=O)[C@H](CCN(CCN3CCOCC3)CC(=O)O)NC(=O)[C@H](CC(=O)O)NC1=O)NC(=O)[C@H](CC(C)(C)C)NC(=O)[C@H](CC(=O)O)NC2=O (stereo partly drawn) [I-1842, Ac-PL3-Asp-Npg-B5-Asp-[MorphEt]GAbu-Ala-Ala-Phe-Leu-PyrS2-3Thi-BztA-Gln-NH2] |
| 52 | 52 | CC(=O)N1CCC[C@]12CC=CCCCC1(CCCC=CCCCCCC[C@@](C)(C(=O)N[C@@H](Cc3ccsc3)C(=O)N[C@@H](Cc3csc4ccccc34)C(=O)N[C@@H](CCC(N)=O)C(N)=O)NC(=O)[C@H](CC(N)=O)NC(=O)[C@H](Cc3ccccc3)NC(=O)[C@H](C)NC(=O)[C@H](C)NC(=O)[C@H](CN(CC(=O)O)C(C)C)NC(=O)[C@H](CC(=O)O)NC1=O)NC(=O)[C@H](CC(C)(C)C)NC(=O)[C@H](CC(=O)O)NC2=O (stereo partly drawn) [I-1453, Ac-PL3-Asp-Npg-B5-Asp-[iPr]GA-Ala-Ala-Phe-Asn-S8-3Thi-BztA-Gln-NH2] |
| 209 | – | CC(=O)N1CCC[C@]12CC=CCCCCC1(CCCCC=CCCCOC(=O)N3CC[C@@](C(=O)N[C@@H](Cc4ccccc4C(F)(F)F)C(=O)N[C@@H](Cc4csc5ccccc45)C(=O)N[C@@H](C)C(N)=O)(C3)NC(=O)[C@H](CC(C)C)NC(=O)[C@H](Cc3ccccc3)NC(=O)[C@H](C)NC(=O)[C@H](CCC(N)=O)NC(=O)[C@H](Cc3cccc(C(=O)O)c3)NC(=O)[C@H](CC(=O)O)NC1=O)NC(=O)[C@H](CC(C)(C)C)NC(=O)[C@H](CC(=O)O)NC2=O (stereo partly drawn) [I-2516, Ac-PL3-Asp-Npg-B6-Asp-3COOHF-Gln-Ala-Phe-Leu-PyrS2-2F3MeF-BztA-Ala-NH2] |
| 182 | – | CC(=O)N1CCC[C@]12CC=CCCCC1(CCCC=CCOC(=O)N3CC[C@@](C(=O)N[C@@H](Cc4ccsc4)C(=O)N[C@@H](Cc4csc5ccccc45)C(=O)N[C@@H](CCC(N)=O)C(N)=O)(C3)NC(=O)[C@H](CC(N)=O)NC(=O)[C@H](Cc3ccccc3)NC(=O)[C@H](C)NC(=O)[C@H](C)NC(=O)[C@H](CC(=O)O)NC(=O)[C@H](CC(=O)O)NC1=O)NC(=O)[C@H](CC(C)(C)C)NC(=O)[C@H](CC(=O)O)NC2=O (stereo partly drawn) [I-1817, Ac-PL3-Asp-Npg-B5-Asp-Asp-Ala-Ala-Phe-Asn-PyrS-3Thi-BztA-Gln-NH2] |
| 5 | – | CC(=O)N1CCC[C@]12CC=CCCCC1(CCCC=CCCCOC(=O)N3CC[C@@](C(=O)N[C@@H](Cc4ccsc4)C(=O)N[C@@H](Cc4csc5ccccc45)C(=O)N[C@@H](CCC(N)=O)C(N)=O)(C3)NC(=O)[C@H](CCC(=O)N3CCn4cncc4C3)NC(=O)[C@H](Cc3ccccc3)NC(=O)[C@H](C)NC(=O)[C@H](C)NC(=O)[C@H](CN(CC(=O)O)CC(F)(F)F)NC(=O)[C@H](CC(=O)O)NC1=O)NC(=O)[C@H](CC(C)(C)C)NC(=O)[C@H](CC(=O)O)NC2=O (stereo partly drawn) [I-1934, Ac-PL3-Asp-Npg-B5-Asp-TfeGA-Ala-Ala-Phe-[H4IAP]GlnR-PyrS2-3Thi-BztA-Gln-NH2] |
| 24 | – | CC(=O)N1CCC[C@]12CC=CCCCC1(CCCC=CCCCOC(=O)N3CC[C@@](C(=O)N[C@@H](Cc4ccsc4)C(=O)N[C@@H](Cc4csc5ccccc45)C(=O)N[C@@H](CCC(N)=O)C(N)=O)(C3)NC(=O)[C@H](CC(C)C)NC(=O)[C@H](Cc3ccccc3)NC(=O)[C@H](C)NC(=O)[C@H](C)NC(=O)[C@H](CCN(CC(=O)O)CC(=O)O)NC(=O)[C@H](CC(=O)O)NC1=O)NC(=O)[C@H](CC(C)(C)C)NC(=O)[C@H](CC(=O)O)NC2=O (stereo partly drawn) [I-1836, Ac-PL3-Asp-Npg-B5-Asp-[CH2CO2H]GAbu-Ala-Ala-Phe-Leu-PyrS2-3Thi-BztA-Gln-NH2] |
